According to ChEMBL document CHEMBL1201862, “PubChem BioAssay data set” (2004):
Active and inactive are the calls of the source.

Key:
[1] = target: Beta-2 adrenergic receptor (Homo sapiens, UniProt P07550); assay: beta2AR agonists driving receptor internalization, dose response, cell-based, FAP fluorogen, flow cytometry, cherry pick 1 (AID 588763); type: functional
[2] = target: T1, Replicative DNA helicase DnaB (Mycobacterium tuberculosis, UniProt P9WMR3); assay: DnaB intein splicing inhibitors, dose response, biochemical, cell-free fluorescence (AID 449749); type: functional
T1 sequence (P9WMR3 whole entry): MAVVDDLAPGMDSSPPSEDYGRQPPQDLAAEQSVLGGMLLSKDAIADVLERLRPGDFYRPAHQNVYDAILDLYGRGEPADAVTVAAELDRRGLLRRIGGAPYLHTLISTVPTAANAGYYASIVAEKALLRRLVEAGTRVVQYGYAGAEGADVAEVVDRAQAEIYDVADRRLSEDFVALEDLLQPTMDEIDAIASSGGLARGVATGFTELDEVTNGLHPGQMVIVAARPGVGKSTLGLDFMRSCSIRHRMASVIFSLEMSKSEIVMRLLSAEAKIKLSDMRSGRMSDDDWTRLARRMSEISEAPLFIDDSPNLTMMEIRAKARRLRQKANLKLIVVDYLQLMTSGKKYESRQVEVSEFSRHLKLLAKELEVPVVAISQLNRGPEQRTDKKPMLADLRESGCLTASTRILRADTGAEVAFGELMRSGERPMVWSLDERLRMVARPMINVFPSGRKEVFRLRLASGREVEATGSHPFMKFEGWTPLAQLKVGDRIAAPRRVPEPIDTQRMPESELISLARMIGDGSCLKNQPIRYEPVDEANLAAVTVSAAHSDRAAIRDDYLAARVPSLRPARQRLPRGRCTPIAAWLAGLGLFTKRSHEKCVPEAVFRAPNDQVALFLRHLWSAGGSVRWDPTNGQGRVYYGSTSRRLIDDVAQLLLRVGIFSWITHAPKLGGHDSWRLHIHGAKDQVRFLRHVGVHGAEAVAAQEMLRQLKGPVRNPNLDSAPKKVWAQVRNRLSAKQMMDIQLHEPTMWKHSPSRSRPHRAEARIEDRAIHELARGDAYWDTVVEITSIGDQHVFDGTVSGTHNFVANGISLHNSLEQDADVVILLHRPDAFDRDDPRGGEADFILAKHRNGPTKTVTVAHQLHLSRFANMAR

[3] = target: T2, SUMO-activating enzyme (Homo sapiens, UniProt Q9UBT2); assay: SUMOylation inhibitor hit validation, confirmation, SUMOylation inhibitor project, biochemical, AlphaScreen (AID 2018); type: functional
T2 sequence (Q9UBE0 whole entry): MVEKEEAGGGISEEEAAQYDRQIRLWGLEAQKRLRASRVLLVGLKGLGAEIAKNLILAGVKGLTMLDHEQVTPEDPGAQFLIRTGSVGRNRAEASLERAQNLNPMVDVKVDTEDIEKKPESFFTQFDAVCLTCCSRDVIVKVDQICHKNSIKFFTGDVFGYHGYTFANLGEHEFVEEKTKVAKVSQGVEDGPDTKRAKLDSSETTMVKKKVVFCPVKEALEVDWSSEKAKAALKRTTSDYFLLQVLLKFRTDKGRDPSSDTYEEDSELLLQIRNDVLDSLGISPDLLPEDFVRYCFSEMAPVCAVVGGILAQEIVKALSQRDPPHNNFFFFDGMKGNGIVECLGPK
T2 sequence (Q9UBT2 whole entry): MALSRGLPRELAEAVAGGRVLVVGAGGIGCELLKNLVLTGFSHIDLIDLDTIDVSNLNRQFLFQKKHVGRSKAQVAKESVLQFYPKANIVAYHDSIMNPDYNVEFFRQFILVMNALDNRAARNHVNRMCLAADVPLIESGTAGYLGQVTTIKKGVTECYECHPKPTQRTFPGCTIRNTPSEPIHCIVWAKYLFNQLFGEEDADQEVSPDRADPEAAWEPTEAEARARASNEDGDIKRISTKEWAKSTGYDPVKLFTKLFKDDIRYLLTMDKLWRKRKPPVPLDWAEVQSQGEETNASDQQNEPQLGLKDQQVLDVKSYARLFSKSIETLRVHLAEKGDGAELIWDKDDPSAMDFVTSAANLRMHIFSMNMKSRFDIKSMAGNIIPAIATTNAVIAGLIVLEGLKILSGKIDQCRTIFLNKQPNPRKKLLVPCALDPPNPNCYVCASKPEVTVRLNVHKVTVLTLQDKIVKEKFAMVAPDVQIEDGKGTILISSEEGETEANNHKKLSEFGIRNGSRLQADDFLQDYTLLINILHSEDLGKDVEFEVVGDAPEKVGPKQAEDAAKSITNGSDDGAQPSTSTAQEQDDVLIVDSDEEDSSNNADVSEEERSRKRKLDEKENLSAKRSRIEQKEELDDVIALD

[4] = target: T3, Protein RecA (Mycobacterium tuberculosis, UniProt P9WHJ3); assay: Fluorescence Cell-Free Homogeneous Dose Retest to Identify Inhibitors of RecA-Intein Splicing Activity. [Related pubchem assays (depositor defined):AID2097, AID2223, AID489010, AID492950]; type: functional
T3 sequence (P9WHJ3 whole entry): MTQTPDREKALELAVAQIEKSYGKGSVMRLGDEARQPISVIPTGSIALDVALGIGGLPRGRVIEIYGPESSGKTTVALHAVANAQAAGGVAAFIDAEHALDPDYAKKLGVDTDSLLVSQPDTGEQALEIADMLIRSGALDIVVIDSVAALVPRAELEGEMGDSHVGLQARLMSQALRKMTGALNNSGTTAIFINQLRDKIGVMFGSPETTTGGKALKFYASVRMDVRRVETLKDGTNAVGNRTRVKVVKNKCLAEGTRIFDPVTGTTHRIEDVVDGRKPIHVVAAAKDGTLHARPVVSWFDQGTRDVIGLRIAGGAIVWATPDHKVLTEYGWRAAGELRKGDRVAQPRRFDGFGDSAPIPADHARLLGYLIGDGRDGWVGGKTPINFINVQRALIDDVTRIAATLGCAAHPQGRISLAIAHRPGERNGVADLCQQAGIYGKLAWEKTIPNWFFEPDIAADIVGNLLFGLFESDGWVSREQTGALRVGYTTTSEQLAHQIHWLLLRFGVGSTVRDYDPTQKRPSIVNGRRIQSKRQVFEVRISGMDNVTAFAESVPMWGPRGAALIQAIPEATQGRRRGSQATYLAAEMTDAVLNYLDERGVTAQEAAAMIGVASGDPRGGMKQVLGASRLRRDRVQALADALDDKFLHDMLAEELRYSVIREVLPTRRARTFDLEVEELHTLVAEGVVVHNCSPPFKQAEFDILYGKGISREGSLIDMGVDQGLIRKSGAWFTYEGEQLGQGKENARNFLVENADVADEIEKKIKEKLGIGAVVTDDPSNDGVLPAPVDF

[5] = THP-1 cell cytotoxicity, dose response, cytotoxicity control for Vif-APOBEC3G degradation inhibitor project, THP-1 cells (AID 1117359); type: functional; settings: Human immunodeficiency virus 1, THP-1
[6] = target: Induced myeloid leukemia cell differentiation protein Mcl-1 (Homo sapiens, UniProt Q07820); type: functional
Induced myeloid leukemia cell differentiation protein Mcl-1, sequence (Q07820 whole entry): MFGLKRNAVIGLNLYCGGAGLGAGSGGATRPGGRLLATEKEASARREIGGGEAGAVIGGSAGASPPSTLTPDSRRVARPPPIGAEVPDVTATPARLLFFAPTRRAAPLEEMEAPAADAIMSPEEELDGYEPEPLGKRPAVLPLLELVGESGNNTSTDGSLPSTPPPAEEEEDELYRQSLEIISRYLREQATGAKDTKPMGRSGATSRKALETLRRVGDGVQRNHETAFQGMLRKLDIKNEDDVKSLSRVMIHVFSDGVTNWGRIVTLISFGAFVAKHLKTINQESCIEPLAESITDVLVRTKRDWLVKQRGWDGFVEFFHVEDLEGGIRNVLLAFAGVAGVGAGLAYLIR

[7] = target: T2, SUMO-activating enzyme; assay: inhibitors of in vitro SUMOylation cascade, primary screen, biochemical, HTRF, uHTS (AID 2006); type: protein-complex assay
[8] = target: Voltage-gated inwardly rectifying potassium channel KCNH2 (Homo sapiens, UniProt Q12809); settings: Potency;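 also: confirmatory quantitative high-throughput screen measuring inhibition of hERG channel activity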
Voltage-gated inwardly rectifying potassium channel KCNH2, sequence (Q12809 whole entry): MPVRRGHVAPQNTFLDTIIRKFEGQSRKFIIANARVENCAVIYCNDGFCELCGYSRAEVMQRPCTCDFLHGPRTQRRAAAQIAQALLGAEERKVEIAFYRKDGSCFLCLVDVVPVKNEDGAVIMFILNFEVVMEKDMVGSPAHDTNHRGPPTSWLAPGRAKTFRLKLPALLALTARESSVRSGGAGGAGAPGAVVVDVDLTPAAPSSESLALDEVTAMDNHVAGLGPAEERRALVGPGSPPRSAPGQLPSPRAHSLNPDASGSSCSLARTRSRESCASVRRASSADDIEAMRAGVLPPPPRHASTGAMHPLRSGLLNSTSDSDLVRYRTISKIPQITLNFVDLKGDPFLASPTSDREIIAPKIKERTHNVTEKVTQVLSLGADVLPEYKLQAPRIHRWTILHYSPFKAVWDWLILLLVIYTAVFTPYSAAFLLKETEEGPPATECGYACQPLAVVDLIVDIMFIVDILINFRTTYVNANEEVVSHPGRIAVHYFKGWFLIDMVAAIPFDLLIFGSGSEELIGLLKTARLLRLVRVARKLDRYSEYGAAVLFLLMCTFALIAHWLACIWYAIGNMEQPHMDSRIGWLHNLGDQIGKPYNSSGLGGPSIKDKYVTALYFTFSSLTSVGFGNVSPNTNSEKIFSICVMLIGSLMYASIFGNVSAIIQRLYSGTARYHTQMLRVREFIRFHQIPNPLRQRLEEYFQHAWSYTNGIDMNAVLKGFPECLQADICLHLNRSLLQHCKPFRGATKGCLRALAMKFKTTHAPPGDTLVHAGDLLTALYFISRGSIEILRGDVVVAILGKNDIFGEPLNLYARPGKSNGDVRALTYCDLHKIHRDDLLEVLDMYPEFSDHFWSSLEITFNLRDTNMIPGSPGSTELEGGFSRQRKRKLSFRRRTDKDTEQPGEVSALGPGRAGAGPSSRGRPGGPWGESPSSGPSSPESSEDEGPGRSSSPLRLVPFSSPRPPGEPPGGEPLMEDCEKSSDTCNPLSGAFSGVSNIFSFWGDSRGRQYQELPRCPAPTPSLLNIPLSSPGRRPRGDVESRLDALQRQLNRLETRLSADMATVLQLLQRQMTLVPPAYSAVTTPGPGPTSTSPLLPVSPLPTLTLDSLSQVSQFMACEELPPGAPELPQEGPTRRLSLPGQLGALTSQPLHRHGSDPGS

[9] = tested on: INS1; assay: beta cell apoptosis inhibitors, cytokine rescue, dose response, luminescence, retest (AID 449756); type: functional, cell-based; settings: Rattus norvegicus;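 also: cell death triggered by IL-1 beta plus TNF-alpha plus IFN-gamma mixture; protective hits raise ATP signal compared with cytokine alone wells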
[10] = target: Cytochrome P450 2C19 (Homo sapiens, UniProt P33261); assay: Cytochrome panel assay with activity outcomes. Panel member name: p450-cyp2c19 Compounds with AC50 equal or less than 10 uM are considered active; type: functional
Cytochrome P450 2C19, sequence (P33261 whole entry): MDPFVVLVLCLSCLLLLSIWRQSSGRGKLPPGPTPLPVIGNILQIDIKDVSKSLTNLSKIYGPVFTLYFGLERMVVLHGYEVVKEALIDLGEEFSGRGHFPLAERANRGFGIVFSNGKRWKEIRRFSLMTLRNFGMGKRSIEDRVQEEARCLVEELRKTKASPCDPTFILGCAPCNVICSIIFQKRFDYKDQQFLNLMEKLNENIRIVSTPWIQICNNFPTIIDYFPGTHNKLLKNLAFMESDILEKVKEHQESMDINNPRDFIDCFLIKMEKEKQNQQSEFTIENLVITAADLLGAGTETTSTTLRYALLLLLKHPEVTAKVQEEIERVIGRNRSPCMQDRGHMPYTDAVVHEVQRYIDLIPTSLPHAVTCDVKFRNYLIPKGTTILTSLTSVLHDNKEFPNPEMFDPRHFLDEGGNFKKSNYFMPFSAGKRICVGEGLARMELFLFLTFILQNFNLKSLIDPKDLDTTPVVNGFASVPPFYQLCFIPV

[11] = tested on: Vero; assay: cells; type: functional; settings: Chlorocebus sabaeus
[12] = Luminescence Cell-Based Dose Retest to Confirm Inhibitors of Cancer Stem Cells. [Related pubchem assays (depositor defined):AID2717, AID2721]; type: functional; settings: Homo sapiens
[13] = cytotoxicity in HEK-293T cells, dose response, cytotoxicity control for TCR NF-kB inhibitor project, luminescence, T-cell screen hits (AID 489026); type: functional, cell-based;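 also: cells exposed to compound about 14 hours before the viability readout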
[14] = A cytotoxicity screen of small molecule inhibitors of the PhoP region in Salmonella typhi identified in the primary screen. [Related pubchem assays: 1850, 1864, 1985 ]; type: functional
[15] = target: Glucose-6-phosphate 1-dehydrogenase (Homo sapiens, UniProt P11413); assay: human G6PD enzyme inhibitors, dose response, selectivity assay for P. falciparum G6PD inhibitor project, biochemical, fluorescence (AID 504792); type: functional
Glucose-6-phosphate 1-dehydrogenase, sequence (P11413 whole entry): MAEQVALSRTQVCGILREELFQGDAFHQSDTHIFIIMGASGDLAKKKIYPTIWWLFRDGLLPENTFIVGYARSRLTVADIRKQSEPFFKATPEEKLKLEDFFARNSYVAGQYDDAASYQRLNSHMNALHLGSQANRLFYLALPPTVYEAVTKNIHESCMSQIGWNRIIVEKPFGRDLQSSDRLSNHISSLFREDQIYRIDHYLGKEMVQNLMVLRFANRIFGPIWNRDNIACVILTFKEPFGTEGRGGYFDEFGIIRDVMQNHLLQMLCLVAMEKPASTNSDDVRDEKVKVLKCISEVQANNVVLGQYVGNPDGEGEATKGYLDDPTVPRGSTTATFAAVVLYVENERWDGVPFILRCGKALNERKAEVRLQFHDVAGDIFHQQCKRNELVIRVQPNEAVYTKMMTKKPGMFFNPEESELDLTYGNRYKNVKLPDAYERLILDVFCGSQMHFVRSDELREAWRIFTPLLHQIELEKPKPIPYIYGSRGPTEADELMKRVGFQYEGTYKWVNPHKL

[16] = target: DNA dC->dU-editing enzyme APOBEC-3G (Homo sapiens, UniProt Q9HC16); assay: Dose Response confirmation of small molecule APOBEC3G DNA Deaminase Inhibitors via a fluorescence-based single-stranded DNA deaminase assay. [Related pubchem assays (depositor defined):AID493012, AID493028]; type: functional
[17] = target: Photoreceptor-specific nuclear receptor (Homo sapiens, UniProt Q9Y5X4); type: functional, cell-based;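 also: CHO-S cells with Gal4-NCOR and VP16-NR2E3 two-hybrid luciferase reporter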
[18] = target: Dual specificity protein kinase CLK1 (Homo sapiens, UniProt P49759); assay: CLK1 kinase inhibitors, off-target check, dose response, selectivity assay for Dyrk1A inhibitor project, biochemical, cherry-picked samples (AID 588811)
Dual specificity protein kinase CLK1, sequence (P49759 whole entry): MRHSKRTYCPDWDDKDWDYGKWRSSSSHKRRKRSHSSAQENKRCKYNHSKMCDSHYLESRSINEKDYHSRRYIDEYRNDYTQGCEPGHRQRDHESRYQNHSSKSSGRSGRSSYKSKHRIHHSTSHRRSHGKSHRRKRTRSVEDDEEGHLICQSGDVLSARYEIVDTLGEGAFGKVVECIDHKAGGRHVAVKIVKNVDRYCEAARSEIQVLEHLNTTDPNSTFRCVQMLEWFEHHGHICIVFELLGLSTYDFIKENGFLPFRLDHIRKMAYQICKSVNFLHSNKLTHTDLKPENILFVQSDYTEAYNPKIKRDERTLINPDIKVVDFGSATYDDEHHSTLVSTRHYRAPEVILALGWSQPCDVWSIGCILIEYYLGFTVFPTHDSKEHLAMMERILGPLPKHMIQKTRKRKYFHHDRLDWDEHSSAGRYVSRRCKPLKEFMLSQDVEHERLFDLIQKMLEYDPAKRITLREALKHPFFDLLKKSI

[19] = target: Dual specificity tyrosine-phosphorylation-regulated kinase 1A (Rattus norvegicus, UniProt Q63470); type: biochemical, Homo sapiens
[20] = target: T4, Cytochrome P450 1A2 (Homo sapiens, UniProt P05177);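 also: PubChem cytochrome P450 panel assay, CYP1A2 panel member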
T4 sequence (P05177 whole entry): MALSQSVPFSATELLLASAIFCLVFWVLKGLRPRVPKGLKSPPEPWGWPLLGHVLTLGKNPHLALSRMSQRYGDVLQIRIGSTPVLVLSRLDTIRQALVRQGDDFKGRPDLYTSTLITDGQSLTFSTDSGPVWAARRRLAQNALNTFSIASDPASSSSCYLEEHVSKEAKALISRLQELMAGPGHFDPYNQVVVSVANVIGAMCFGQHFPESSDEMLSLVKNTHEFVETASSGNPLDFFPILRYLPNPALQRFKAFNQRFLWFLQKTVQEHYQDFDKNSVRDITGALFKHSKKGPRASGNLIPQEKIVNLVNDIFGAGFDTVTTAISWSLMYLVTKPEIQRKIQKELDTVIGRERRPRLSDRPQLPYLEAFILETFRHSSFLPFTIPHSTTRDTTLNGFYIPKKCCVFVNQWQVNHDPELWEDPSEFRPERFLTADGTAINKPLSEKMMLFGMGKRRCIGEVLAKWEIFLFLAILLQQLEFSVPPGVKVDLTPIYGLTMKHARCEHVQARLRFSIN

[21] = target: Cytochrome P450 3A4 (Homo sapiens, UniProt P08684);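 also: CYP3A4 tested as one member of a cytochrome P450 panel screen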
[22] = target: Cytochrome P450 2D6 (Homo sapiens, UniProt P10635);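 also: CYP2D6 member of a cytochrome P450 panel assay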
Cytochrome P450 2D6, sequence (P10635 whole entry): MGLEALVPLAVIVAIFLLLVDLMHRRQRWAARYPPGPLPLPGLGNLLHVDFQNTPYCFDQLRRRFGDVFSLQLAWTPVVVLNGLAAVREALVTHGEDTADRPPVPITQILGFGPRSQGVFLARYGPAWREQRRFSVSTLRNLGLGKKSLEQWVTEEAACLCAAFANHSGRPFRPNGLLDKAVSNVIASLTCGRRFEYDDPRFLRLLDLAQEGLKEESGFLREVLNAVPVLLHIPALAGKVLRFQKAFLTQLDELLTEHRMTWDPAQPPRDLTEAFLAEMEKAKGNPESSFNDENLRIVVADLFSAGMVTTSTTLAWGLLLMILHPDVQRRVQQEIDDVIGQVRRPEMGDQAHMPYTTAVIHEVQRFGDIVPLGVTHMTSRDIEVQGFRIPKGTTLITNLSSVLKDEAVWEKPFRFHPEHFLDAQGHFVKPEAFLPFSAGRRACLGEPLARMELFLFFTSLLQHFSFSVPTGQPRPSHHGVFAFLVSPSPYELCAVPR

[23] = target: T5, Heat shock factor protein 1 (Mus musculus, UniProt P38532); assay: HSF1 potentiators in luciferase reporter cells, confirmation, cell-based, NIH3T3, luminescence, dose retest (AID 435004); type: functional;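 also: stress induced by proteasome inhibitor MG132 added 30 min after compound; luciferase reporter driven by HSF1 response element in NIH3T3 cells; actives raise luminescence as potentiators of the MG132 stress response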
T5 sequence (P38532 whole entry): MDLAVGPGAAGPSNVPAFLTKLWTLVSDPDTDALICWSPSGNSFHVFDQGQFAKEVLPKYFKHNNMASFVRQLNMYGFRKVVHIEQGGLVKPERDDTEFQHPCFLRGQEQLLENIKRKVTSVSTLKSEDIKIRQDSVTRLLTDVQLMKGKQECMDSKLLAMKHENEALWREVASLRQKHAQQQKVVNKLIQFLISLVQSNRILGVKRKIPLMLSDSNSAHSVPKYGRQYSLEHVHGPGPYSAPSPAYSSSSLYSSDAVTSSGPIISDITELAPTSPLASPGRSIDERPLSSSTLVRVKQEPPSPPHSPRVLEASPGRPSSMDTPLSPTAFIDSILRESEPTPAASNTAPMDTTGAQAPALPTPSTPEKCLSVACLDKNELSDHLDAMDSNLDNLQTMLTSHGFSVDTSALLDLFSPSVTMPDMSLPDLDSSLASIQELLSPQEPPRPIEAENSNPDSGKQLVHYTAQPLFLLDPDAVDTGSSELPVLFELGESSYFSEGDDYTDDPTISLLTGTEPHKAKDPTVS

Beta-2 adrenergic receptor, sequence (P07550 whole entry): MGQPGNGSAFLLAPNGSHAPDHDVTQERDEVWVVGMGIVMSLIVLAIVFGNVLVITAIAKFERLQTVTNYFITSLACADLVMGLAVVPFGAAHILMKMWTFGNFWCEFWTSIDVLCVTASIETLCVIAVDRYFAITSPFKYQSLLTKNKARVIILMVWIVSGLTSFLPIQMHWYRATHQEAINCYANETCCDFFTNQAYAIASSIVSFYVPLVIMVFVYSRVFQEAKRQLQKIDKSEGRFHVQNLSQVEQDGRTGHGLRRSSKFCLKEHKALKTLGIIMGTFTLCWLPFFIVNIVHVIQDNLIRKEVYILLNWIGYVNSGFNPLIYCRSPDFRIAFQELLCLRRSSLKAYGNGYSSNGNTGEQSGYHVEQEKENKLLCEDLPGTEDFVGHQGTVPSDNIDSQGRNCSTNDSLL

Question: Which EC50 [1] does the source give for NC(=O)CC(NC(=O)Cc1ccc(Br)cc1)c1ccc(N2CCN(c3ccccn3)CC2)c([N+](=O)[O-])c1 (centres undefined) here?
Answer: 12.2 µM (inactive)

Question: What does the source list for CCc1ccc(S(=O)(=O)/N=C2\C=CC(=O)c3ccccc32)cc1?
Answer: AC50 [2]: 1.15 µM (active); IC50 [3]: 4.93 µM (active); EC50 [4]: 0.643 µM (active); CC50 [5]: 23.7 µM (active); IC50 [6]: 3.11 µM (active); IC50 [7]: 35.4 µM (active)

Question: Which results are given for CC(C)(C)c1cc(C=C(C#N)C#N)cc(C(C)(C)C)c1O [TYRPHOSTIN A9]?
Answer: AC50 [8]: 15.8 µM (inconclusive); AC50 [9]: 0.928 µM (active); AC50 ([10]; read-out: AC50): 7.94 µM (inconclusive); CC50 [11]: 1.37 µM (active); AC50 [12]: 1.3 µM (active); IC50 [13]: > 80 µM (inactive)

Question: Which EC50 [14] does the source give for CC(=O)Nc1ccc(S(=O)(=O)NNc2cccc(C)c2)cc1 here?
Answer: > 50 µM (active)

Question: What about the IC50 [15] of the same molecule?
Answer: > 80 µM (inactive)

Question: And the IC50 [16]?
Answer: 35.9 µM (active)

Question: For CSc1ccc(C(=O)C2CCCN(Cc3cccn3-c3cccnc3)C2)cc1 (centres undefined), which EC50 [1] is on record?
Answer: 0.566 µM (active)

Question: Which IC50 [17] does the source give for O=C(CSc1nnnn1-c1ccc(O)cc1)Nc1ccc(N2CCOCC2)c(Cl)c1 here?
Answer: 0.488 µM (active)

Question: What about the AC50 [18] of the same molecule?
Answer: 8.48 µM (active)

Question: What about the AC50 [19] of the same molecule?
Answer: 8.12 µM (active)

Question: With c1ccc(SCCSc2ccccc2)cc1 as the molecule, how does the AC50 [8] read?
Answer: 28.2 µM (inconclusive)

Question: With COc1cc(-c2nnc(SC/C=C/c3ccccc3)n2N)cc(OC)c1OC as the molecule, how does the AC50 [20] read?
Answer: 14.1 µM (inconclusive)

Question: What about the AC50 [21] of the same molecule?
Answer: 31.6 µM (inconclusive)

Question: And the AC50 [22]?
Answer: inconclusive

Question: And the EC50 [23]?
Answer: > 260 µM (inconclusive)

Question: For Cc1ccc(C(=O)N/N=C/c2ccc(S(=O)(=O)[O-])o2)c(Cl)c1.[Na+], which AC50 [10] is on record?
Answer: inconclusive

Question: And the AC50 [22]?
Answer: inconclusive

Question: Which AC50 [18] does the source give for c1nc(NCC2CCCC2)c2cc(-c3ccc4c(c3)OCO4)ccc2n1 here?
Answer: 0.00361 µM (active)

Question: With Clc1ccc(CNc2nccc(-c3ccc4c(c3)OCO4)n2)cc1Cl as the molecule, how does the AC50 [18] read?
Answer: < 0.00195 µM (active)
